Test results: US11274115B2, “Imidazoquinoline derivatives and their use in therapy” (GLAXOSMITHKLINE BIOLOGICALS SA, priority 2016, dated 2022)
Where two headings read alike, the source gives them in different places.

How the values were obtained:
Assay type in all cases: cell-based
human TLR7 = target: T1, human TLR7 (Homo sapiens, UniProt Q9NYK1); assay: hTLR7 agonist reporter assay in HEK293 cells (NFκB-SEAP); conditions: for hTLR7/8 ratio: hTLR7 ED50 over hTLR8 ED50; for EC50: read-out: hTLR7 ED50; for hTLR7 agonist activity, in words: Table 3, FIG. 5
T1 construct: host or cells: HEK293
T1 sequence (Q9NYK1 27-1049): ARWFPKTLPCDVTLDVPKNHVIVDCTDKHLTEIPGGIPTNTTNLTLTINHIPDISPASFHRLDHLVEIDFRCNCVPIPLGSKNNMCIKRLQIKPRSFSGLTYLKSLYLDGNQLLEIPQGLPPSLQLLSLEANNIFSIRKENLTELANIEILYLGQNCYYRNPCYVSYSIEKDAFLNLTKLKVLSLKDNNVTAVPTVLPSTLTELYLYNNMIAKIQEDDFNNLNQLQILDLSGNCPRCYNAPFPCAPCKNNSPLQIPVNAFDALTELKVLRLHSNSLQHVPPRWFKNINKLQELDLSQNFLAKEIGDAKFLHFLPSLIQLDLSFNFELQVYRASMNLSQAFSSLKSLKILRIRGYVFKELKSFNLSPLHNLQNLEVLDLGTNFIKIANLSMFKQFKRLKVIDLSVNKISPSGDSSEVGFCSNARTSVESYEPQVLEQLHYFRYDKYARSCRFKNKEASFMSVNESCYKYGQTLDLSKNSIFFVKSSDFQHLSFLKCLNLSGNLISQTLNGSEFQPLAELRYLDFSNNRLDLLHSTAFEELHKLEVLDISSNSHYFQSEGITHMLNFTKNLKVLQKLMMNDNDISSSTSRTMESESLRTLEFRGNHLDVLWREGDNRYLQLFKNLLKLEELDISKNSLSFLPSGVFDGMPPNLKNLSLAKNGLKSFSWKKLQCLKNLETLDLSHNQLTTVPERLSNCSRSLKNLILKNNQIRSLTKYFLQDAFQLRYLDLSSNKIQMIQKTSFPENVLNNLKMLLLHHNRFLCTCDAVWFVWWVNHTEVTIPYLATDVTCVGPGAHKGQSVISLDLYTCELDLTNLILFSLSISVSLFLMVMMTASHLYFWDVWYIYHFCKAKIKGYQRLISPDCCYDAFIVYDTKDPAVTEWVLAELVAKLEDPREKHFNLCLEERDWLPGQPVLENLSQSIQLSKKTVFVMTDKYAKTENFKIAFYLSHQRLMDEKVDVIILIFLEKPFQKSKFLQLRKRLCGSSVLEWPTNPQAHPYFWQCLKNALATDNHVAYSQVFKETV
Description: (§1) Assay for hTLR7 and hTLR8 Agonist Activity in HEK-293 Cells
(§2) Determination of TLR agonist activity was performed using the HEK293 […]. This assay measures TLR7 and TLR8 selectivity and potency of the compounds tested. HEK293 cells expressing human TLR7 or TLR8 and NFκB responsive Secreted Embryonic Alkaline Phosphatase (SEAP) reporter gene were obtained from InvivoGen (San Diego, Calif.). These cells were maintained in culture media of Dulbecco's Modified Eagle Medium (DMEM) (Invitrogen, Grand Island, N.Y.), 10% Fetal Bovine Serum (FBS) (Sigma, St. Louis, Mo.) and selection antibiotics (Invitrogen, and Invivogen). HEK293 stably transfected with human TLR7 (hTLR7) or human TLR8 (hTLR8) were stimulated for 24 h with aqueous formulations of test compounds and culture supernatants were analyzed for NFκB activation using the colorimetric SEAP detection kit QuantBlue (InvivoGen).

human TLR8 = target: T2, human TLR8 (Homo sapiens, UniProt Q9NR97); assay: hTLR8 agonist reporter assay in HEK293 cells (NFκB-SEAP); conditions: for EC50: read-out: hTLR8 ED50; for hTLR8 agonist activity, in words: Table 3, FIG. 6
T2 construct: host or cells: HEK293
T2 sequence (Q9NR97 27-1041): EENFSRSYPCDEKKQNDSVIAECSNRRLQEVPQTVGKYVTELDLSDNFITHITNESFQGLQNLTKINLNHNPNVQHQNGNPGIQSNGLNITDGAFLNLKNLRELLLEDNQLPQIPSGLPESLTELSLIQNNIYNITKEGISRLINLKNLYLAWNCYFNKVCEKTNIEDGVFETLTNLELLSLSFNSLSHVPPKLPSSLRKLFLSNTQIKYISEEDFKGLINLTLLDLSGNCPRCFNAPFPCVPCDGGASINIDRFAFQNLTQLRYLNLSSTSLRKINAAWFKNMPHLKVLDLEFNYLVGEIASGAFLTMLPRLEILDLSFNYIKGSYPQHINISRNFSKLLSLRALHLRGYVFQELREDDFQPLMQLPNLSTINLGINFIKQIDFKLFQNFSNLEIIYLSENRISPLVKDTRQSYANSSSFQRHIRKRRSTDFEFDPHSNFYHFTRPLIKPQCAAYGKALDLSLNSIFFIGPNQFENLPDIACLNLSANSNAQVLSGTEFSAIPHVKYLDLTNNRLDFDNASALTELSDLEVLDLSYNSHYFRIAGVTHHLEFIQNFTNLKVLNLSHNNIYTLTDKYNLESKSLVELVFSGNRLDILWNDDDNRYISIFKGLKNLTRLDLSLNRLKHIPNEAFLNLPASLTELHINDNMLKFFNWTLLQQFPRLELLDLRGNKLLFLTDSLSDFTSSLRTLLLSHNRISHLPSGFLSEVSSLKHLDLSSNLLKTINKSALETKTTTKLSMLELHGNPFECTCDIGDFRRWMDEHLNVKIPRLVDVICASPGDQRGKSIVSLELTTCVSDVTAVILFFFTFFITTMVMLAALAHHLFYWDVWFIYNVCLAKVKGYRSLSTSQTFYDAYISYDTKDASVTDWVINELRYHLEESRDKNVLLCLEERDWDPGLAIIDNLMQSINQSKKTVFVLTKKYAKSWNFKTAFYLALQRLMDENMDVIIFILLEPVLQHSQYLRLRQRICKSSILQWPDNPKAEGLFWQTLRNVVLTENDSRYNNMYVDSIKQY
Description: as §1, §2

[1] = system: human peripheral blood mononuclear cells (hPBMCs); assay: IFN-γ induction in hPBMCs; conditions: 24 h
Description: (§3) Assays to Measure Cytokine Induction
(§4) Test compounds were evaluated for cytokine induction in human peripheral blood mononuclear cells (hPBMCs).
(§5) Primary human PBMCs were isolated from fresh blood from healthy donors via Ficoll gradient separation and plated at 0.5×10^6 cells/well in 96-well tissue culture plates (RPMI-1640 plus 10% FBS). hPBMCs were maintained with RPMI-1640 culture media (Invitrogen, Grand Island, N.Y.), antibiotics (Invitrogen) and 10% FBS (Sigma).
(§6) Incubation and Assays for IFN-γ, IFN-α and TNF-α
(§7) hPBMCs were stimulated for 24 h with aqueous formulations of test compounds. Culture supernatants were analyzed for TNF-α and IFN-γ induction using multiplex kits (FluoroKine multiplex kits from R&D Systems, Minneapolis, Minn.) and for IFN-α induction using human IFN-α VeriKine ELISA kit (Pestka Biomedical Laboratories, Inc., Piscataway, N.J.).

[2] = system: human peripheral blood mononuclear cells (hPBMCs); assay: IFN-α induction in hPBMCs; conditions: 24 h
Description: as §3, §4, §5, §6, §7

[3] = system: human peripheral blood mononuclear cells (hPBMCs); assay: TNF-α induction in hPBMCs; conditions: 24 h
Description: as §3, §4, §5, §6, §7

[4] = Table 2, FIG. 3, another occasion, * = only very low levels of NFKB activation were detected
[5] = Table 3, FIG. 5, another occasion, * = only very low levels of NFKB activation were detected
[6] = Table 4, FIG. 7, another occasion
[7] = Table 2, FIG. 4, another occasion, * = only very low levels of NFKB activation were detected
[8] = Table 3, FIG. 6, another occasion, * = only very low levels of NFKB activation were detected
[9] = Table 4, FIG. 8, another occasion
[10] = Table 1, FIG. 1, 24 h stimulation, aqueous formulations
[11] = Table 1, FIG. 2, 24 h stimulation, aqueous formulations

hTLR7/8 ratio (human TLR7; Table 1) | EC50 (human TLR7; [4]) [nM] | hTLR7/8 ratio (human TLR7; Table 2) | EC50 (human TLR7; [5]) [nM] | hTLR7/8 ratio (human TLR7; Table 3) | EC50 (human TLR7; [6]) [nM] | EC50 (human TLR8; [7]) [nM] | EC50 (human TLR8; [8]) [nM] | EC50 (human TLR8; [9]) [nM] | hTLR7 agonist activity, in words (human TLR7) | hTLR8 agonist activity, in words (human TLR8) | SMILES | IFN-α induction, in words ([2]; FIG. 14, another occasion) | TNF-α induction, in words ([3]; FIG. 13) | TNF-α induction, in words ([3]; FIG. 15, another occasion) | also measured
 |  |  | 1600 | 0.7 |  |  | 2200 |  | good agonist of hTLR7 and hTLR8 | good agonist of hTLR7 and hTLR8 | CCCCc1nc2c(N)nc3cc(OCCCCO)ccc3c2n1CCO [Comparative Example 4] | did not induce IFN-α |  | effective at inducing TNF-α | 
15.5 | 2400 | 2.9 | 2200 | 1.9 |  | 800 | 1100 |  |  |  | CCCCc1nc2c(N)nc3cc(OCCO)ccc3c2n1CCO [Comparative Example 3] | Weaker effects | potent at inducing TNF-α | effective at inducing TNF-α | EC50 (human TLR7; [10]): 1560 nM; EC50 (human TLR8; [11]): 100 nM; IFN-α induction, in words ([2]; FIG. 10): equipotent at inducing IFN-α and these were more potent than Comparative Example 1 and Comparative Example 2 in this assay at a lower dose
 |  |  | 13200 | 0.8 |  |  | 16300 |  | quite weak agonist of hTLR7 and hTLR8 | quite weak agonist of hTLR7 and hTLR8 | CCCCc1nc2c(N)nc3cc(OCCOCCOCCO)ccc3c2n1CCO [Comparative Example 5] | did not induce IFN-α |  | effective but less potent | 

Second part, the compound before the results:

SMILES | hTLR7/8 ratio (human TLR7; Table 1) | EC50 (human TLR7; [4]) [nM] | hTLR7/8 ratio (human TLR7; Table 2) | EC50 (human TLR7; [5]) [nM] | hTLR7/8 ratio (human TLR7; Table 3) | EC50 (human TLR7; [6]) [nM] | EC50 (human TLR8; [7]) [nM] | EC50 (human TLR8; [8]) [nM] | EC50 (human TLR8; [9]) [nM] | hTLR7 agonist activity, in words (human TLR7) | hTLR8 agonist activity, in words (human TLR8) | IFN-α induction, in words ([2]; FIG. 14, another occasion) | TNF-α induction, in words ([3]; FIG. 13) | TNF-α induction, in words ([3]; FIG. 15, another occasion) | also measured
CCCCc1nc2c(N)nc3ccccc3c2n1CCO [Comparative Example 1, reference compound] | 3.1 | 1000 | 2.3 | 1100 | 1.5 | 1500 | 400 | 720 | 610 |  |  | Weaker effects | potent at inducing TNF-α | effective at inducing TNF-α | hTLR7/8 ratio (human TLR7; Table 4): 2.4; IFN-γ induction, in words ([1]; FIG. 11, another occasion): the most potent at inducing IFN-γ; IFN-α induction, in words ([2]; FIG. 16, another occasion): induced little IFN-α
CCCCc1nc2c(N)nc3cc(OCCOP(=O)(O)OCCOCCOCCO[C@H]4CC[C@@]5(C)C(=CC[C@H]6[C@@H]7CC[C@H]([C@H](C)CCCC(C)C)[C@@]7(C)CC[C@@H]65)C4)ccc3c2n1CCO [Example 4] |  |  |  |  |  |  | 31900 |  |  |  |  |  |  |  | 
CCCCCCCC/C=C\CCCCCCCC(=O)OC[C@H](COP(=O)(O)OCCOCCOCCOc1ccc2c(c1)nc(N)c1nc(CCCC)n(CCO)c12)OC(=O)CCCCCCC/C=C\CCCCCCCC [Example 6] |  |  |  | 8700 | 1.5 |  |  | 5800 |  | very weak agonist of hTLR7 | reasonably potent agonist of hTLR8 | potent, but less so than Example 1 |  | effective but less potent | 
CCCCCCCC/C=C\CCCCCCCC(=O)OC[C@H](COP(=O)(O)OCCn1c(CCCC)nc2c(N)nc3ccccc3c21)OC(=O)CCCCCCC/C=C\CCCCCCCC [Comparative Example 2, reference compound] | 1.3 | 55400 | 1.4 |  |  |  | 39200 |  |  |  |  |  | not significantly effective at inducing TNF-α |  | EC50 (human TLR7; [10]): 34600 nM; EC50 (human TLR8; [11]): 26000 nM; IFN-γ induction, in words ([1]; FIG. 9): did not induce any IFN-γ; IFN-γ induction, in words ([1]; FIG. 11, another occasion): did not induce IFN-γ
CCCCCCCC/C=C\CCCCCCCC(=O)OC[C@H](COP(=O)(O)OCCCCOc1ccc2c(c1)nc(N)c1nc(CCCC)n(CCO)c12)OC(=O)CCCCCCC/C=C\CCCCCCCC [Example 5] |  |  |  | 10500 | 1.6 |  |  | 6600 |  | very weak agonist of hTLR7 or hTLR8 | very weak agonist of hTLR7 or hTLR8 | potent but at higher dose |  | very weak effect | 
CCCCCCCCCCCCCCCC(=O)OC[C@H](COCCOCCOCCOP(=O)(O)OCCOc1ccc2c(c1)nc(N)c1nc(CCCC)n(CCO)c12)OC(=O)CCCCCCCCCCCCCCC [Example 2] |  |  |  |  |  | 6100 |  |  | 810 |  |  |  |  |  | 
CCCCCCCCCCCCCCCC(=O)OC[C@H](COP(=O)(O)OCCOc1ccc2c(c1)nc(N)c1nc(CCCC)n(CCO)c12)OC(=O)CCCCCCCCCCCCCCC [Example 7] |  |  |  |  |  | 14600 |  |  | 3810 |  |  |  |  |  | 
